Literature values as cited in patent publication US20230349886A1, “SYSTEMS AND METHODS FOR PREDICTING CARDIOTOXICITY OF MOLECULAR PARAMETERS OF A COMPOUND BASED ON MACHINE LEARNING ALGORITHMS” (UTI Limited Partnership, priority 2015, published 2023).
Read-outs that look alike come from different tables or passages of the source.

Tests used:
[1] = Brown dataset; flag given as 1 or 0
hERG = hERG (Homo sapiens, UniProt Q12809); for HERG maxInhib: test concentration or dose not given here
Cav1.2 = Cav1.2 (Homo sapiens, UniProt Q13936); for CAV1.2 max inhib: test concentration or dose not given here
Cav1.2, sequence (Q13936 1-2138 isoform Q13936-12): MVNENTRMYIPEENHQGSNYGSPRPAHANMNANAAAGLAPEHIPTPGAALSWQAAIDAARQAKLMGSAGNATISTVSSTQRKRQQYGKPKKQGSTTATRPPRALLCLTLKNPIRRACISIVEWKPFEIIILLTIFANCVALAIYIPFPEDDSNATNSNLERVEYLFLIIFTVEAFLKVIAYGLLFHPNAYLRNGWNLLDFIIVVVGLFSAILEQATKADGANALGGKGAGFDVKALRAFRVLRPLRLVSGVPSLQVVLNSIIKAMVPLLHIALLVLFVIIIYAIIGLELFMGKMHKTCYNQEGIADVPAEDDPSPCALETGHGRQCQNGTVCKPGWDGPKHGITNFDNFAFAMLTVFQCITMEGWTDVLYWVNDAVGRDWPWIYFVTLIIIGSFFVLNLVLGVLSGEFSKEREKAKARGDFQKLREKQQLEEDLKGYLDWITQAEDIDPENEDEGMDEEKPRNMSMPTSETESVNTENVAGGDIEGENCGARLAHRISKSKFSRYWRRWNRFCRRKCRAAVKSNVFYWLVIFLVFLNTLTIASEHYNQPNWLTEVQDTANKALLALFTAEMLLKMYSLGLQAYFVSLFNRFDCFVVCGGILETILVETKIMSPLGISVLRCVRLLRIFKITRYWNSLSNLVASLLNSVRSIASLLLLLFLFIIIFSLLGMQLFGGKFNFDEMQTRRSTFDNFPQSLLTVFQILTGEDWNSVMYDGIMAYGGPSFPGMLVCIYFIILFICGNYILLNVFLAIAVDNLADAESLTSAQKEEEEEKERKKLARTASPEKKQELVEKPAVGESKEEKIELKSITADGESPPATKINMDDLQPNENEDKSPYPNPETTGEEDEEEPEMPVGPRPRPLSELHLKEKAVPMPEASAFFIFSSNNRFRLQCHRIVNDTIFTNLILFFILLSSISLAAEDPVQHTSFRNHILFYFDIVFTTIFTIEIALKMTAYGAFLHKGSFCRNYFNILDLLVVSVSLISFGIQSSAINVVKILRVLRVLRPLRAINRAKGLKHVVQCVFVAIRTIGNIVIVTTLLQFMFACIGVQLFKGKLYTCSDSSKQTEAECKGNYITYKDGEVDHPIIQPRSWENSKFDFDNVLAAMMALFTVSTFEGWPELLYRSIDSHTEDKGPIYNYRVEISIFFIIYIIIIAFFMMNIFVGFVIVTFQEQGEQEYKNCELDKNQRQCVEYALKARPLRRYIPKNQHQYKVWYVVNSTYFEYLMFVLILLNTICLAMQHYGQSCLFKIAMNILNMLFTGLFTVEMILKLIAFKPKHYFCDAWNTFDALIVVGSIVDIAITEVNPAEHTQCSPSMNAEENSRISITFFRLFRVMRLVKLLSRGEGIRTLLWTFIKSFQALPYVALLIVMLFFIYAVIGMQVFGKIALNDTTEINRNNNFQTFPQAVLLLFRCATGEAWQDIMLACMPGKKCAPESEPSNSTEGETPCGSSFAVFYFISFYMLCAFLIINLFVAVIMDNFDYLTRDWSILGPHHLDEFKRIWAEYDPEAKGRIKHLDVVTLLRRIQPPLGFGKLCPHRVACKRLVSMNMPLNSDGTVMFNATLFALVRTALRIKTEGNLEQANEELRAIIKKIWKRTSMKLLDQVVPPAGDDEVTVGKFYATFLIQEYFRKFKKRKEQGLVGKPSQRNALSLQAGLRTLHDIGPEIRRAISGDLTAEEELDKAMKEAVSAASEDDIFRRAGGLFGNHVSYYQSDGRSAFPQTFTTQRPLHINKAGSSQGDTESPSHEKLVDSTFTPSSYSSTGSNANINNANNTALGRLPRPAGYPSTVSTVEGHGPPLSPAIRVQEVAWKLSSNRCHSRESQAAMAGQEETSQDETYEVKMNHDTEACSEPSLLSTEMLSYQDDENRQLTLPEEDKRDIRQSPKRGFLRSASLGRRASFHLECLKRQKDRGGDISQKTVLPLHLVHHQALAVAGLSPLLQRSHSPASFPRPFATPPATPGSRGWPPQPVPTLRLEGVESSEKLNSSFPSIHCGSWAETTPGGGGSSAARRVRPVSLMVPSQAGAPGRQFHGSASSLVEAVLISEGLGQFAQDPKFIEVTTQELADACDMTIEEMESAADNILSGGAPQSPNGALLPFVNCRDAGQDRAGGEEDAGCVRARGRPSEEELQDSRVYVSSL
Cav1.2, sequence (Q08289 whole entry partner): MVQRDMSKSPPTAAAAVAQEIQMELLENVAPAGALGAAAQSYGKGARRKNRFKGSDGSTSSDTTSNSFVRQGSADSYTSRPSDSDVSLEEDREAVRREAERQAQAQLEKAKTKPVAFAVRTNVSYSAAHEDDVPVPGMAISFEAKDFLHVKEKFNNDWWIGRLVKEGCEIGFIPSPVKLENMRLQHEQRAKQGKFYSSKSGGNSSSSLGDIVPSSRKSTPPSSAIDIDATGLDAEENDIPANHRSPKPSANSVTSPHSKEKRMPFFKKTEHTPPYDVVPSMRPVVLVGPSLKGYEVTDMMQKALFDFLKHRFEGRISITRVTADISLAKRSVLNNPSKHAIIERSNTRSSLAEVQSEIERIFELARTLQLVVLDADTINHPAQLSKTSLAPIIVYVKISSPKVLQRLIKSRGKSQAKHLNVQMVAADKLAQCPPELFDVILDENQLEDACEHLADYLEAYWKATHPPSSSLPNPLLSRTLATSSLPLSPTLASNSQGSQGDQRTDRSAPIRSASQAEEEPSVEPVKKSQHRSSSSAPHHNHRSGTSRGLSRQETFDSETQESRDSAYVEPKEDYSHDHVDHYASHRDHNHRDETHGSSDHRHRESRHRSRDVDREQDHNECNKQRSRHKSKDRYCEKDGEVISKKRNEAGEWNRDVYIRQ
Cav1.2, sequence (P54289 25-946 partner limits assumed): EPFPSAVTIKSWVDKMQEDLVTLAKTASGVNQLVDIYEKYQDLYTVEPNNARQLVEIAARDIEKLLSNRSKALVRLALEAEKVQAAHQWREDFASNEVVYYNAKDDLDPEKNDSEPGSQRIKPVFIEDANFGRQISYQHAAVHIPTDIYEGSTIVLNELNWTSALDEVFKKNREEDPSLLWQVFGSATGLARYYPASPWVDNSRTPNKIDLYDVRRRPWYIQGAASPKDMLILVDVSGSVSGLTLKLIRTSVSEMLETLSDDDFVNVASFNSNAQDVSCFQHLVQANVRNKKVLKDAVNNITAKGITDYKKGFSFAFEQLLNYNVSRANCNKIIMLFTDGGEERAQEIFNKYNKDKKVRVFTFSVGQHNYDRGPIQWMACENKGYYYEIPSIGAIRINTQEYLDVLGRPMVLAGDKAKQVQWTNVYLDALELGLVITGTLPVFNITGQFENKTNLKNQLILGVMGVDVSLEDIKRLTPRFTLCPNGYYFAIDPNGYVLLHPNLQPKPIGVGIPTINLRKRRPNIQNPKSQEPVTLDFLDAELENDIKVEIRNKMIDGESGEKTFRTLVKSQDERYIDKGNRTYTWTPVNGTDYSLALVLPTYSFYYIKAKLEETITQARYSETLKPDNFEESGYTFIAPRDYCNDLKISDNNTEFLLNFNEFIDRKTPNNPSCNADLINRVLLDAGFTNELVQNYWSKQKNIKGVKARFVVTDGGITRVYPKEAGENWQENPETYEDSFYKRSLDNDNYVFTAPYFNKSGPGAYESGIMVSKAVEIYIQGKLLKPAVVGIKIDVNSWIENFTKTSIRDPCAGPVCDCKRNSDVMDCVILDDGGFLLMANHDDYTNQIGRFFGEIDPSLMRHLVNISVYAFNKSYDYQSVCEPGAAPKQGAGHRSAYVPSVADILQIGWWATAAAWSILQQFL
Cav1.2, sequence (P54289 947-1103 partner limits assumed): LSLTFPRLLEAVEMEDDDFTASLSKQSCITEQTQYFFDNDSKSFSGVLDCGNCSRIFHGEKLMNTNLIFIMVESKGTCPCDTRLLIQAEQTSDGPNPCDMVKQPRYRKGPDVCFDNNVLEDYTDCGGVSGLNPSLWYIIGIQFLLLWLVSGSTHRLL

Nav1.5 = Nav1.5 (Homo sapiens, UniProt Q14524); conditions: for IC50: read-out: NAV1.5 IC50; for NAV1.5 max inhib: test concentration or dose not given here
[2] = read-out: HERG IC50, Brown dataset
[3] = read-out: CAV1.2 IC50, Brown dataset
[4] = Table 11, calculated from HERG-IC50 of the Kramer et al. 2013 data

hERG, sequence (Q12809 whole entry): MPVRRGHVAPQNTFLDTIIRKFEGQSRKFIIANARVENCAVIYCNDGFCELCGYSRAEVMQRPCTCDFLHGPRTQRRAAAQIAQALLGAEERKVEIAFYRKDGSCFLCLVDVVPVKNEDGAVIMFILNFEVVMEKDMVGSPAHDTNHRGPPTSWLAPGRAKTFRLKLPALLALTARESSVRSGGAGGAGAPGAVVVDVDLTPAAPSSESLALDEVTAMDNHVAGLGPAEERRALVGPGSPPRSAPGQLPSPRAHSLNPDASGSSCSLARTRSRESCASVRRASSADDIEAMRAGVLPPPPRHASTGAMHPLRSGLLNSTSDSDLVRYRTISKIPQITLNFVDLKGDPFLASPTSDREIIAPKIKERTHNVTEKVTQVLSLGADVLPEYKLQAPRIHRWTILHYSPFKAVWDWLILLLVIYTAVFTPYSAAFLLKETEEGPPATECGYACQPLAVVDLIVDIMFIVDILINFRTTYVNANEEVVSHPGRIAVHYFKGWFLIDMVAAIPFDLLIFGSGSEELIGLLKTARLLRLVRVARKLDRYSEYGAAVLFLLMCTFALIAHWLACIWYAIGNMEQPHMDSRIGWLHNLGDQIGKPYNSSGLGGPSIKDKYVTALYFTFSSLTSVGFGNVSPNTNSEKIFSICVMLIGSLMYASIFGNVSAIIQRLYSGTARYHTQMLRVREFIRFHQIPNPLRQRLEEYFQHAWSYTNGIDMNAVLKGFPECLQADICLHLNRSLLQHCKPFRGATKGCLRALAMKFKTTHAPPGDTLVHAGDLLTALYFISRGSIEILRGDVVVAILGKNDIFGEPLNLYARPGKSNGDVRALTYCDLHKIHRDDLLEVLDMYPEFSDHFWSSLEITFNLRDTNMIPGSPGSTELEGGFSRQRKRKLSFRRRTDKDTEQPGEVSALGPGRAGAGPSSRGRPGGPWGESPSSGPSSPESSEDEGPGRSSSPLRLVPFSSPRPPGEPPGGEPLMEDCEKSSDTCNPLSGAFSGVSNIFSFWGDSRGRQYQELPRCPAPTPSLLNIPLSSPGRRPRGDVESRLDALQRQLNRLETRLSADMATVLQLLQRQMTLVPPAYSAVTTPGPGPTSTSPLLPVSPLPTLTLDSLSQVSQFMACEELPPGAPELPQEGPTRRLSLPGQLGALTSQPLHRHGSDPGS

SMILES	Ris (TdP risk flag) [1]	CAV1.2 max inhib (Cav1.2; Brown dataset)	IC50 (Cav1.2; [3]) [µM]	NAV1.5 max inhib (Nav1.5; Brown dataset)	IC50 (Nav1.5; Brown dataset) [µM]	also measured
CCCCc1oc2ccccc2c1C(=O)c1cc(I)c(OCCN(CC)CC)c(I)c1 [amiodaron]	1					
CN(C)CCCN1c2ccccc2Sc2ccc(Cl)cc21 [chlorprom ne]	1					HERG maxInhib (hERG; Brown dataset): 96.7; IC50 (hERG; [2]): 1.5 µM
COc1cc(N)c(Cl)cc1C(=O)NC1CCN(CCCOc2ccc(F)cc2)CC1OC (stereo not shown) [cisapride]	1	42.8	11.8	22.9	337	
CN1CCN(C2=Nc3cc(Cl)ccc3Nc3ccccc32)CC1 [clozapine]		73.5		91.8	15.1	HERG maxInhib (hERG; Brown dataset): 97.7
CN1C(=O)CN=C(c2ccccc2)c2cc(Cl)ccc21 [diazepam]	0					
CC(C)N(CCC(C(N)=O)(c1ccccc1)c1ccccn1)C(C)C (stereo not shown) [disopyrami]				68.9	168	CAV1.2 max inhib (Cav1.2): 22.1; CAV1.2 pIC50 (Cav1.2): 2.9843 902; IC50 (Cav1.2): 1040 µM
CN(CCOc1ccc(NS(C)(=O)=O)cc1)CCc1ccc(NS(C)(=O)=O)cc1 [dofetilide]	1	54.2				
O=C(CCCN1CC=C(n2c(=O)[nH]c3ccccc32)CC1)c1ccc(F)cc1 [droperidol]	1	83.4	7.6	59	22.7	
CNCC[C@H](Oc1cccc2ccccc12)c1cccs1 [duloxetine]	0	99.8	2.8			HERG maxInhib (hERG): 96.3; NAV1.5 max inhib (Nav1.5): 100; IC50 (Nav1.5): 5.1 µM
CCCCN(CCCC)CCC(O)c1cc2c(Cl)cc(Cl)cc2c2cc(C(F)(F)F)ccc12 (stereo not shown) [halofantrin]				8.3	331	HERG maxInhib (hERG): 77.9; HERG pIC50 (hERG): 6.4202 403; IC50 (hERG): 0.38 µM
CCCCN(CCCC)CCC(O)c1cc2c(Cl)cc(Cl)cc2c2cc(C(F)(F)F)ccc12 (stereo not shown) [halofantrine]						pIC50 (hERG): 6.42
O=C(CCCN1CCC(O)(c2ccc(Cl)cc2)CC1)c1ccc(F)cc1 [haloperidol]		94		96.6		HERG maxInhib (hERG): 89.2
CC(=O)NC[C@H]1CN(c2ccc(N3CCOCC3)c(F)c2)C(=O)O1 [linezolid]	0	70.3	105	9.6	2640	HERG maxInhib (hERG; Brown dataset): 19.3; pIC50 (hERG; [4]): 2.94; IC50 (hERG; [2]): 1150 µM
CCOC(=O)N1CCC(=C2c3ccc(Cl)cc3CCc3cccnc32)CC1 [loratadine]	0					
CCC(=O)C(CC(C)N(C)C)(c1ccccc1)c1ccccc1 (stereo not shown) [methadone]	1	96.9		100	31.8	HERG maxInhib (hERG; Brown dataset): 91.6; pIC50 (hERG; [4]): 5.456; IC50 (hERG; [2]): 3.5 µM
COCC(=O)O[C@]1(CCN(C)CCCc2nc3ccccc3[nH]2)CCc2cc(F)ccc2[C@@H]1C(C)C [mibefradil]	0	92.1		100		

SMILES	Ris (TdP risk flag) [1]	CAV1.2 max inhib (Cav1.2; Brown dataset)	IC50 (Cav1.2; [3]) [µM]	NAV1.5 max inhib (Nav1.5; Brown dataset)	IC50 (Nav1.5; Brown dataset) [µM]	also measured
COc1c(N2C[C@@H]3CCCN[C@@H]3C2)c(F)cc2c(=O)c(C(=O)O)cn(C3CC3)c12 [moxifloxacin]		53.7		17.4		HERG maxInhib (hERG; Brown dataset): 75.9
Cc1cn(-c2cc(NC(=O)c3ccc(C)c(Nc4nccc(-c5cccnc5)n4)c3)cc(C(F)(F)F)c2)cn1 [nilotinib]		32.4				
CCOC(=O)C1=C(C)NC(C)=C(C(=O)OC)C1c1cccc([N+](=O)[O-])c1 (stereo not shown) [nitrendipine]	0	74.6		86.3	21.6	HERG maxInhib (hERG; Brown dataset): 68.3; pIC50 (hERG; [4]): 4.609; IC50 (hERG; [2]): 24.6 µM
Cc1nc2n(c(=O)c1CCN1CCC(c3noc4cc(F)ccc34)CC1)CCCC2O (stereo not shown) [paliperidone]	1	33.1	194	51.2	109	
CCCC(C)C1(CC)C(=O)NC(=O)NC1=O (stereo not shown) [pentobarbital]	0	82.1	299	9	2690	HERG maxInhib (hERG): 39.5; HERG pIC50 (hERG): 2.843 135; IC50 (hERG): 1430 µM; pIC50 (hERG): 2.843
O=c1[nH]c2ccccc2n1C1CCN(CCCC(c2ccc(F)cc2)c2ccc(F)cc2)CC1 [pimozide]	1	88.1				HERG maxInhib (hERG): 91.3
CCN1CCN(C(=O)N[C@@H](C(=O)N[C@@H]2C(=O)N3[C@@H]2SC(C)(C)[C@@H]3C(=O)O)c2ccccc2)C(=O)C1=O [piperacillin]		15.9	1230	9.7	2430	
CCN(CC)CCNC(=O)c1ccc(N)cc1 [procainamide]						HERG maxInhib (hERG; Brown dataset): 50.7
C=C[C@H]1C[N@@]2CC[C@H]1C[C@@H]2[C@@H](O)c1ccnc2ccc(OC)cc12 [quinidine]	1	58		97.5		
CC(C)(C)NC(=O)[C@@H]1C[C@@H]2CCCC[C@@H]2CN1C[C@@H](O)[C@H](Cc1ccccc1)NC(=O)[C@H](CC(N)=O)NC(=O)c1ccc2ccccc2n1 [saquinavir]						HERG maxInhib (hERG; Brown dataset): 73.1; pIC50 (hERG; [4]): 4.772; IC50 (hERG; [2]): 16.9 µM
O=C1NCCN1CCN1CCC(c2cn(-c3ccc(F)cc3)c3ccc(Cl)cc23)CC1 [sertindole]	1	91.5	6.3	95.5	6.9	
O=C(O[C@H]1CN2CCC1CC2)N1CCc2ccccc2[C@@H]1c1ccccc1 [solifenacin]		96.4		100		
CCN(CC)CCNC(=O)c1c(C)[nH]c(/C=C2\C(=O)Nc3ccc(F)cc32)c1C [sunitinib]	1	61.5	33.4	66.4		
Cc1cn([C@@H]2C[C@@H](O)[C@H](CO)O2)c(=O)[nH]c1=O [telbivudine]		22.1	714	15.1	1100	HERG maxInhib (hERG; Brown dataset): 17.4; pIC50 (hERG; [4]): 3.374; IC50 (hERG; [2]): 423 µM
CC(C)(C)c1ccc(C(O)CCCN2CCC(C(O)(c3ccccc3)c3ccccc3)CC2)cc1 (stereo not shown) [terfenadine]		98		99		
CC(CC(c1ccccc1)c1ccccc1)NC(C)(C)C (stereo not shown) [terodiline]	1	95.4	4.8	100	7.4	
CSc1ccc2c(c1)N(CCC1CCCCN1C)c1ccccc1S2 (stereo not shown) [thioridazine]		82.9		99.3		
C[C@@H](c1ncncc1F)[C@](O)(Cn1cncn1)c1ccc(F)cc1F [voriconazole]		40.9	414	15.8	1550	
